Measured values reported in ChEMBL document CHEMBL1201862, “PubChem BioAssay data set” (2004).
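Dose response: 5 concentrations. Exposure: 48 h. Format: 96-well plates. Endpoint: linear interpolation; highest concentration if not reached. GI50 marks 50% less growth.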 The source made the active and inactive calls. No stated cut-off is given here; in the data, active = GI50 up to about 1.1 µM and inactive = higher.

Experiments:
Assay in all cases: growth of human tumour cells (NCI), 48 h
A549 = test system: A549
CCRF-CEM = test system: CCRF-CEM
COLO 205 = test system: COLO 205
HCT-15 = test system: HCT-15
HOP-62 = test system: HOP-62
HOP-92 = test system: HOP-92
HT-29 = test system: HT-29
MOLT-4 = test system: MOLT-4
NCI-H226 = test system: NCI-H226
NCI-H23 = test system: NCI-H23
NCI-H460 = test system: NCI-H460
OVCAR-4 = test system: OVCAR-4
SF-268 = test system: SF-268
SF-295 = test system: SF-295
SK-MEL-28 = test system: SK-MEL-28
SK-MEL-2 = test system: SK-MEL-2
SNB-19 = test system: SNB-19
SNB-75 = test system: SNB-75
SW-620 = test system: SW-620
UO-31 = test system: UO-31

Row | SMILES | GI50 (A549) | GI50 (CCRF-CEM) | GI50 (COLO 205) | GI50 (HCT-15) [µM] | GI50 (HOP-62) | GI50 (HOP-92) | GI50 (HT-29) | GI50 (MOLT-4) | GI50 (NCI-H226) | GI50 (NCI-H23) | GI50 (NCI-H460) | GI50 (OVCAR-4) | GI50 (SF-268) | GI50 (SF-295) | GI50 (SK-MEL-28) | GI50 (SK-MEL-2) | GI50 (SNB-19) | GI50 (SNB-75) | GI50 (SW-620) | GI50 (UO-31)
1 | C=C1C(=O)OCC2C(C(=O)O)=CC3C(C)C(C)=CC123 (stereo not given) | 20.7 µM (inactive) | 7.74 µM (inactive) | 10.6 µM (inactive) | 11 | 12.2 µM (inactive) | 10.6 µM (inactive) | 11.1 µM (inactive) | 7.82 µM (inactive) | 19.1 µM (inactive) | 8.36 µM (inactive) | 9.14 µM (inactive) | 8.32 µM (inactive) | 9.46 µM (inactive) | 15 µM (inactive) | 3.52 µM (inactive) | 7.21 µM (inactive) | 11.8 µM (inactive) | 13.9 µM (inactive) | 9.31 µM (inactive) | 14 µM (inactive)
2 | CCCCCCCC/C=C\CCCCCCCC(=O)O [OLEIC ACID] | 109 µM (inactive) | 99.8 µM (inactive) | > 500 µM (inactive) | 177 | > 500 µM (inactive) | > 5 µM (inactive) | > 500 µM (inactive) | 148 µM (inactive) | 9.48 µM (inactive) | 87.7 µM (inactive) | 101 µM (inactive) | > 291 µM (inactive) | 101 µM (inactive) | 99.1 µM (inactive) | 149 µM (inactive) | 206 µM (inactive) | 143 µM (inactive) | 24.5 µM (inactive) | 140 µM (inactive) | 158 µM (inactive)
